How the values were obtained:
[1] = test system: BT474, T47D, MCF-7 breast cancer, HT29 colon cancer, C8161 melanoma, A549 lung cancer cell lines; assay: MTT cell viability screen of 36 compounds in 6 cancer cell lines; type: cell-based; conditions: 100 μM, 24 hours, among 36 compounds
Experimental: (§1) Cell Viability Assay—The Cells were treated with peptides for 24 hours at different peptide concentrations. The 3-(4,5-dimethylthiazol-2-yl)-5-(3-carboxymethoxyphenyl)-2-(4-sulfophenyl)-2H-tetrazolium compound from Promega Viability kit (Madison, Ill.) was added, and the cells were incubated at 37° C. for 1-2 hours. The optical density on 96-plate was analyzed with a microplate reader at 490 nm to determine cell viability. In addition, cells were stained with trypan blue after 24 hours of treatment with Y15 and the percent of cells that stained positive were determined with a hemacytometer. […] Then 2% SDS was added to the dried plated and OD at 590 nm was measured for detecting cell adhesion. […] Protein concentrations were determined using a Bio-Rad Kit. The boiled samples were loaded on Ready SDS-10% PAGE gels (Bio Rad, Inc) and used for Western blot analysis with the protein-specific antibody. […] Detachment Assay—Cells were plated with and without inhibitors for 24 hours, and detached and attached cells were counted in a hemocytometer. We calculated the percent of detachment by dividing the number of detached cells by the total number of cells. The percent of detached cells was calculated in three independent experiments. […] For each experiment 300 cells per treatment were counted. […]

c-Src phosphorylation = assay: Phosphorylation of c-Src in cells; type: cell-based; conditions: not shown
Experimental: as §1

EGFR = biological target: T1, EGFR (Homo sapiens, UniProt P00533); assay: KinaseProfiler screening; type: biochemical; conditions: 1 μM, 10 μM ATP
T1 construct: purchased Millipore KinaseProfiler Service (Upstate Biotechnology, Inc)
Experimental: (§2) Cell Viability Assay—The Cells were treated with peptides for 24 hours at different peptide concentrations. The 3-(4,5-dimethylthiazol-2-yl)-5-(3-carboxymethoxyphenyl)-2-(4-sulfophenyl)-2H-tetrazolium compound from Promega Viability kit (Madison, Ill.) was added, and the cells were incubated at 37° C. for 1-2 hours. The optical density on 96-plate was analyzed with a microplate reader at 490 nm to determine cell viability. In addition, cells were stained with trypan blue after 24 hours of treatment with Y15 and the percent of cells that stained positive were determined with a hemacytometer. Cell adhesion assay—The poly-L-Lysine or Collagen (5 μg/ml) coated 96-well plates were blocked with the blocking buffer (medium with 0.5% BSA) for 1 hour at 37 C. The cells were pre-treated with drugs for 3 hours and plated for adhesion at 4×10^5 cells. Cells were incubated at 37 C for 1 hour, fixed in 3.7% formaldehyde, washed in 0.1% BSA in PBS and stained with crystal violet (5 mg/ml in 2% ethanol) for 10 minutes. Then 2% SDS was added to the dried plated and OD at 590 nm was measured for detecting cell adhesion. Western Blotting—Cells or homogenized tumor samples were washed twice with cold 1×PBS and lysed on ice for 30 minutes in a buffer containing: 50 mM Tris-HCl (pH 7.5), 150 mM NaCl, 1% Triton-X, 0.5% NaDOC, 0.1% SDS, 5 mM EDTA, 50 mM NaF, 1 mM NaVO3, 10% glycerol and protease inhibitors: 10 μg/ml leupeptin, 10 μg/ml PMSF and 1 μg/ml aprotinin. The lysates were cleared by centrifugation at 10,000 rpm for 30 minutes at 4° C. Protein concentrations were determined using a Bio-Rad Kit. The boiled samples were loaded on Ready SDS-10% PAGE gels (Bio Rad, Inc) and used for Western blot analysis with the protein-specific antibody. Immunoblots were developed with chemiluminescence Renaissance reagent (NEN Life Science Products, Inc). Immunoprecipitation. Immunoprecipitation was performed according to the standard protocol. In brief, the pre-cleared lysates with equal amount of protein were incubated with 1 μg of primary antibody and 30 μl A/G agarose beads overnight at 4° C. The precipitates were washed with lysis buffer three times and re-suspended in 2× Laemmli buffer. The boiled samples were used for Western blotting, as described above. Detachment Assay—Cells were plated with and without inhibitors for 24 hours, and detached and attached cells were counted in a hemocytometer. We calculated the percent of detachment by dividing the number of detached cells by the total number of cells. The percent of detached cells was calculated in three independent experiments. Apoptosis Assay. Detached cells were collected and fixed in 3.7% formaldehyde in 1×PBS solution for the apoptosis assay. Detection of apoptosis was done with Hoechst 33342 staining. The percent of apoptotic cells was calculated as a ratio of apoptotic detached cells divided by the total number of cells in three independent experiments in several fields with the fluorescent microscope. For each experiment 300 cells per treatment were counted. In vitro Kinase Assay—10 μCi of [γ-^32P]-ATP in a kinase buffer (20 mM HEPES, pH 7.4, 5 mM MgCl2, 5 mM MnCl2, 0.1 mM Na3VO4 with 0.1 μg of purified FAK protein were incubated in a kinase buffer with 10 μCi of [γ-^32P]-ATP. The kinase reaction was performed for 5 minutes at room temperature and stopped by addition of 2× Laemmli buffer. Proteins were separated on a Ready SDS-10% PAGE gel, and the phosphorylated enolase was visualized by autoradiography. KinaseProfiler screening—Kinase specificity screening was performed with KinaseProfiler™ Service (Millipore) available on http://www.millipore.com/drugdiscovery/dd3/KinaseProfiler. The screening was performed with 1 μM Y15, 10 μM ATP and kinase substrates on 9 recombinant kinases according to Millipore protocol. Tumor Growth in Nude Mice—Female nude mice, 6 weeks old, were purchased from Harlan Laboratory. […]

IGF-1 = biological target: T2, IGF-1 (Homo sapiens, UniProt P08069); assay: KinaseProfiler screening; type: biochemical; conditions: 1 μM, 10 μM ATP
T2 construct: purchased Millipore KinaseProfiler Service (Upstate Biotechnology, Inc)
T2 sequence (P08069 31-1367): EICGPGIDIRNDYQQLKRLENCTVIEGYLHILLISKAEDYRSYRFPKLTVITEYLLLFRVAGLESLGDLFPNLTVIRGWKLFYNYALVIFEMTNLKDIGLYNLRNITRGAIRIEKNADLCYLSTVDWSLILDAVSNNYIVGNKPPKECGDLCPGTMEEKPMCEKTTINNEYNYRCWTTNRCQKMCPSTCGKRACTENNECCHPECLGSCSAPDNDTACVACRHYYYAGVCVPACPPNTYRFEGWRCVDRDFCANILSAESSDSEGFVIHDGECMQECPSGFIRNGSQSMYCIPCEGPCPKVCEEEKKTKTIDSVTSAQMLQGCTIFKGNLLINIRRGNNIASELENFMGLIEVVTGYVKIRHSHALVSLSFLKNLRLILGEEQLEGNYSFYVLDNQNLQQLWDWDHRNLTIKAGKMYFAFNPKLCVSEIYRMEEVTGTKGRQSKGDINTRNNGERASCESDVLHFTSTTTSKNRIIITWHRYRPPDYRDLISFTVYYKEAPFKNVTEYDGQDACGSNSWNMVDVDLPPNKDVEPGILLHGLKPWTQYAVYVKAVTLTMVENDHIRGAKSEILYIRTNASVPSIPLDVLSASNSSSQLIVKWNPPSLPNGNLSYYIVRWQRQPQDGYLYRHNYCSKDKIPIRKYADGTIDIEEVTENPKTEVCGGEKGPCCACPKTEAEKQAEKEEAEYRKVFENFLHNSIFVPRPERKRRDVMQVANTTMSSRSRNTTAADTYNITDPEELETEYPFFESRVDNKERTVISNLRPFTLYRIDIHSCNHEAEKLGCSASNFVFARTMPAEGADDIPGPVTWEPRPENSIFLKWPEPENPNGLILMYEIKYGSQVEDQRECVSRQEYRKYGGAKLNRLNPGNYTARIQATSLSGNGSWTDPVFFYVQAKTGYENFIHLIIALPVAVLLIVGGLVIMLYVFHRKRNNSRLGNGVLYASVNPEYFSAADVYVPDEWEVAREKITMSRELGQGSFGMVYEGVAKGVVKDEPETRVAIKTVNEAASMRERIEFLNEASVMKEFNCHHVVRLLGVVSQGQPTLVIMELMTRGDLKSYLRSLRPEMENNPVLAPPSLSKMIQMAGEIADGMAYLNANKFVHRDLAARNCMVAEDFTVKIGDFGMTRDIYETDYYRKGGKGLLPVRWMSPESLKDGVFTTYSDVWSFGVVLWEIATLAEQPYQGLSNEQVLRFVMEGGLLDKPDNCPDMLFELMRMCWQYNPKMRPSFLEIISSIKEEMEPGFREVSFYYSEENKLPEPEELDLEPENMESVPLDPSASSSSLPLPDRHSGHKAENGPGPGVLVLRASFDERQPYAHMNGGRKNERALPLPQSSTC
Experimental: as §2

Met = biological target: T3, Met (Homo sapiens, UniProt P08581); assay: KinaseProfiler screening; type: biochemical; conditions: 1 μM, 10 μM ATP
T3 construct: purchased Millipore KinaseProfiler Service (Upstate Biotechnology, Inc)
Experimental: as §2

PDGFR-α = biological target: T4, PDGFR-α (Homo sapiens, UniProt P16234); assay: KinaseProfiler screening; type: biochemical; conditions: 1 μM, 10 μM ATP
T4 construct: purchased Millipore KinaseProfiler Service (Upstate Biotechnology, Inc)
T4 sequence (P16234 24-1089): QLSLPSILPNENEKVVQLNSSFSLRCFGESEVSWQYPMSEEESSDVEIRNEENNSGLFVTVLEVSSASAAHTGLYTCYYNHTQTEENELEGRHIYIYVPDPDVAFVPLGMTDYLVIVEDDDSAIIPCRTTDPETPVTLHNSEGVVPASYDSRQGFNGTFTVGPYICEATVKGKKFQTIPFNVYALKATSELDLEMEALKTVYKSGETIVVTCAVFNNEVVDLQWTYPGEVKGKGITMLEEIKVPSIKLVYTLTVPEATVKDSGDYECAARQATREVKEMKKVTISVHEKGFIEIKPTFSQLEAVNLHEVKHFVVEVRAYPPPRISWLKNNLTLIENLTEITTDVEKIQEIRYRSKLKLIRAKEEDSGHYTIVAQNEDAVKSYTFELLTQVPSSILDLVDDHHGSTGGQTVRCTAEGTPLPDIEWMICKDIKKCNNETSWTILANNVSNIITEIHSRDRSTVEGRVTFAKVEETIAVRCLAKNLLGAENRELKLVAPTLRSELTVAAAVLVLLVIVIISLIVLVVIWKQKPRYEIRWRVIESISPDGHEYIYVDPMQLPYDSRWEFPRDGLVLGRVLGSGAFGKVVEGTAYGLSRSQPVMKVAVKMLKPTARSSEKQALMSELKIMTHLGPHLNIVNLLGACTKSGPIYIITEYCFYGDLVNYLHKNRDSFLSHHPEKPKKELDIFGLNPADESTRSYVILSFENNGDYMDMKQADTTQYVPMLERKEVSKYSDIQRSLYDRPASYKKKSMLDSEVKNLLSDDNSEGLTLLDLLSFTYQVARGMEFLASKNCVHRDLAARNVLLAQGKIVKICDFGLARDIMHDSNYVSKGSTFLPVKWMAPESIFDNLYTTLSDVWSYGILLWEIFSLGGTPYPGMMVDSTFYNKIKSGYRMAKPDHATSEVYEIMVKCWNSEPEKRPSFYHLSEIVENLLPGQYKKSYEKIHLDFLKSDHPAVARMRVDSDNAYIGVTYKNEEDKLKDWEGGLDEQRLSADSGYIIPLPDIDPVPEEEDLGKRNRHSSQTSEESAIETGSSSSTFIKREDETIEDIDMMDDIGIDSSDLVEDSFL
Experimental: as §2

PI3K (p110δ/p85α) = biological target: T5, PI3K (p110δ/p85α) (Homo sapiens, UniProt O00329); assay: KinaseProfiler screening; type: biochemical; conditions: 1 μM, 10 μM ATP
T5 construct: purchased Millipore KinaseProfiler Service (Upstate Biotechnology, Inc)
Experimental: as §2

Pyk2 = biological target: T6, Pyk2 (Homo sapiens, UniProt Q14289); assay: KinaseProfiler screening; type: biochemical; conditions: 1 μM, 10 μM ATP
T6 construct: purchased Millipore KinaseProfiler Service (Upstate Biotechnology, Inc)
T6 sequence (Q14289 whole entry): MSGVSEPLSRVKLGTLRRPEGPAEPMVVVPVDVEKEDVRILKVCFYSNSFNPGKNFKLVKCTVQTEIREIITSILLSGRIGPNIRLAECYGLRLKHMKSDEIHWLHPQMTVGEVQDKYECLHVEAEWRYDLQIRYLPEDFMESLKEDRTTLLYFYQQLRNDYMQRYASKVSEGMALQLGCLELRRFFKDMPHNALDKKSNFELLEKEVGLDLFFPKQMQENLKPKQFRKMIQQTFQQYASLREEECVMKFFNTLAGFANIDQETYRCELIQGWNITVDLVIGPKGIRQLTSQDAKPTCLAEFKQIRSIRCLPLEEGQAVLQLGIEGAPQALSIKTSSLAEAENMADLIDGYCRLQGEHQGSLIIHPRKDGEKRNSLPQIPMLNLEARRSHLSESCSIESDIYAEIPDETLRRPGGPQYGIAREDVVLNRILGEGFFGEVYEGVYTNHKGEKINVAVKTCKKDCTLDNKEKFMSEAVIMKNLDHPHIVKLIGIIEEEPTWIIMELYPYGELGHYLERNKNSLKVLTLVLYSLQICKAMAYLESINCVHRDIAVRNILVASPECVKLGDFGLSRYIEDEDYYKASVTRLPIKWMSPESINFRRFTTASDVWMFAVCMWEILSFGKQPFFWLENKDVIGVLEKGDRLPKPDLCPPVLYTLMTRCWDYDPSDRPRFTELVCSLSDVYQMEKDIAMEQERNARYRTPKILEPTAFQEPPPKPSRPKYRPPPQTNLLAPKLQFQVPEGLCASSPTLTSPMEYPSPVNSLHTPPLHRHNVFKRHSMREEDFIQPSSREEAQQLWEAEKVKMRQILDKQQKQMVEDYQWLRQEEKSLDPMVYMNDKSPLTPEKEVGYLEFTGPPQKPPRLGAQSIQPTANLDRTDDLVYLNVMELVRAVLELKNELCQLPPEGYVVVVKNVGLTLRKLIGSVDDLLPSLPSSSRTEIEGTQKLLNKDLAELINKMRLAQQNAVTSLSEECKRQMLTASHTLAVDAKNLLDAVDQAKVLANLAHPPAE
Experimental: as §2

VEGFR-3 = biological target: T7, VEGFR-3 (Homo sapiens, UniProt P35916); assay: KinaseProfiler screening; type: biochemical; conditions: 1 μM, 10 μM ATP
T7 construct: purchased Millipore KinaseProfiler Service (Upstate Biotechnology, Inc)
T7 sequence (P35916 25-1363): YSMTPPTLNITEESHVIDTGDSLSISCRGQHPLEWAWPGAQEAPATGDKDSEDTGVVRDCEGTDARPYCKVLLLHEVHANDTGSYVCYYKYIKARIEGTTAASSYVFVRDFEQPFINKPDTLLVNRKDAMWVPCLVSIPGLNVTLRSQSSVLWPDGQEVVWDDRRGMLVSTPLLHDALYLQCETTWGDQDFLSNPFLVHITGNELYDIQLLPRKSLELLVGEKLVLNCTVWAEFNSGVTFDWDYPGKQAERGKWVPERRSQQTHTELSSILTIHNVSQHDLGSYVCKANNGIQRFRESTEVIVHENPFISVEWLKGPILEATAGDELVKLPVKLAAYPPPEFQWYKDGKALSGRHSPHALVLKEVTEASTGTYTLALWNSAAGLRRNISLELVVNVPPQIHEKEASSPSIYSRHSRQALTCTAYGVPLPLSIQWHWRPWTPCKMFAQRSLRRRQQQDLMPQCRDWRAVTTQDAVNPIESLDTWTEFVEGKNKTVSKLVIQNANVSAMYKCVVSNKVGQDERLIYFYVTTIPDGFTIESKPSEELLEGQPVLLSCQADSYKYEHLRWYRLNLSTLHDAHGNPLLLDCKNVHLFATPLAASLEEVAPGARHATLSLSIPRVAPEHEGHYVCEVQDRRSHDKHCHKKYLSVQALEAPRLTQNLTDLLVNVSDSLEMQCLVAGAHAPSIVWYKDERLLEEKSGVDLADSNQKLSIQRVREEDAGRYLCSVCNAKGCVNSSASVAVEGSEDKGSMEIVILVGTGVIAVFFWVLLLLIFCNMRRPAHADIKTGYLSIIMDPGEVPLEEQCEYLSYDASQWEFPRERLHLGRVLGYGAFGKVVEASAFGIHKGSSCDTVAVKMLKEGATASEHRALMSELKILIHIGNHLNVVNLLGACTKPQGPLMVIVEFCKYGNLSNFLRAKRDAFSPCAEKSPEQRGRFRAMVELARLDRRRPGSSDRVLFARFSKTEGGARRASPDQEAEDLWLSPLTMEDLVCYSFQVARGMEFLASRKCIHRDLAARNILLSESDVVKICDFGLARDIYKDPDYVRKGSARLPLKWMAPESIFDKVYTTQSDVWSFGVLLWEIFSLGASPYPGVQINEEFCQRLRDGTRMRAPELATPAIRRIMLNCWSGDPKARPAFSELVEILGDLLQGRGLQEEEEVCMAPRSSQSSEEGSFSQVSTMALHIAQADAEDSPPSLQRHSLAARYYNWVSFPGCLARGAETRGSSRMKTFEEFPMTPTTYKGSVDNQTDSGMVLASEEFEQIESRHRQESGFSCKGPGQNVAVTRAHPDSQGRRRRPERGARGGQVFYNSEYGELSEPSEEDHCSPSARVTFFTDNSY
Experimental: as §2

c-RAF = biological target: T8, c-RAF (Homo sapiens, UniProt P04049); assay: KinaseProfiler screening; type: biochemical; conditions: 1 μM, 10 μM ATP
T8 construct: purchased Millipore KinaseProfiler Service (Upstate Biotechnology, Inc)
Experimental: as §2

c-Src = biological target: T9, c-Src (Homo sapiens, UniProt P12931); assay: KinaseProfiler screening; type: biochemical; conditions: 1 μM, 10 μM ATP
T9 construct: purchased Millipore KinaseProfiler Service (Upstate Biotechnology, Inc)
Experimental: as §2

BT474 cells [2] = assay: Detachment assay, BT474; type: cell-based; conditions: 24 hours
Experimental: as §2, with “Detached cells were collected and fixed in 3.7% formaldehyde in 1×PBS solution for the apoptosis assay. Detection of apoptosis was done with Hoechst 33342 staining.” left out, “http://www.millipore.com/drugdiscovery/dd3/KinaseProfiler.” for “http://www.millipore.com/drugdiscovery/dd3/KinaseProfiler. The screening was performed with 1 μM Y15, 10 μM ATP and kinase substrates on 9 recombinant kinases according to Millipore protocol. Tumor Growth in Nude Mice—Female nude mice, 6 weeks old, were purchased from Harlan Laboratory.”

BT474 cells [3] = assay: Apoptosis assay (Hoechst staining), BT474; type: cell-based
Experimental: as §2, with “Western Blotting—Cells or homogenized tumor samples were washed twice with cold 1×PBS and lysed on ice for 30 minutes in a buffer containing: 50 mM Tris-HCl (pH 7.5), 150 mM NaCl, 1% Triton-X, 0.5% NaDOC, 0.1% SDS, 5 mM EDTA, 50 mM NaF, 1 mM NaVO3, 10% glycerol and protease inhibitors: 10 μg/ml leupeptin, 10 μg/ml PMSF and 1 μg/ml aprotinin. The lysates were cleared by centrifugation at 10,000 rpm for 30 minutes at 4° C.” left out, “Immunoblots were developed with chemiluminescence Renaissance reagent (NEN Life Science Products, Inc). Immunoprecipitation. Immunoprecipitation was performed according to the standard protocol. In brief, the pre-cleared lysates with equal amount of protein were incubated with 1 μg of primary antibody and 30 μl A/G agarose beads overnight at 4° C. The precipitates were washed with lysis buffer three times and re-suspended in 2× Laemmli buffer. The boiled samples were used for Western blotting, as described above.” left out, “Apoptosis Assay. Detached cells were collected and fixed in 3.7% formaldehyde in 1×PBS solution for the apoptosis assay. Detection of apoptosis was done with Hoechst 33342 staining.” left out, “http://www.millipore.com/drugdiscovery/dd3/KinaseProfiler.” for “http://www.millipore.com/drugdiscovery/dd3/KinaseProfiler. The screening was performed with 1 μM Y15, 10 μM ATP and kinase substrates on 9 recombinant kinases according to Millipore protocol. Tumor Growth in Nude Mice—Female nude mice, 6 weeks old, were purchased from Harlan Laboratory.”

ERK1/2 phosphorylation = ERK1/2 phosphorylation in pancreatic cancer cells; type: cell-based, human; conditions: dose dependent
Experimental: as §1

For Cl.Cl.Cl.Cl.Nc1cc(N)c(N)cc1N [Y15, 1,2,4,5-benzenetetraamine tetrahydrochloride], the cell viability [1] was “maximally decreased cell viability”, the “phosphorylation of c-Src” value (c-Src phosphorylation) was “did not inhibit” and the kinase activity (EGFR) was “did not significantly decrease kinase activity”. For the same compound, the kinase activity (IGF-1) was “did not significantly decrease kinase activity”, the kinase activity (Met) was “did not significantly decrease kinase activity” and the kinase activity (PDGFR-α) was “did not significantly decrease kinase activity”. The kinase activity (PI3K (p110δ/p85α)) was “did not significantly decrease kinase activity”, the kinase activity (Pyk2) was “did not significantly decrease kinase activity” and the kinase activity (VEGFR-3) was “did not significantly decrease kinase activity”. For the same compound, the kinase activity (c-RAF) was “did not significantly decrease kinase activity”, the kinase activity (c-Src) was “did not significantly decrease kinase activity” and the detachment (BT474 cells [2]; 10 μM) was 8%. The detachment (BT474 cells [2]; 50 μM) was 38%, the detachment (BT474 cells [2]; 100 μM) was 58% and the “apoptotic nuclei (Hoechst)” value (BT474 cells [3]; 200 μM) was “No apoptotic nuclei were detected”. The apoptotic levels (BT474 cells [3]; 50-100 μM) was “less than 6%” and the p-ERK (ERK1/2 phosphorylation) was “down regulated”.

Reference: patent US8314150B2, “Kinase protein binding inhibitors” (priority 2008, dated 2012)
